Legend:
Format in all cases: cell-based
Details in all cases: 24 hours of compound treatment
[1] = target: T1, WEE1 (Homo sapiens, UniProt P30291+Q96SW2); assay: Western-blot assay of substrate protein degradation in hPBMCs, WEE1
T1 construct: endogenous in cells; host or cells: hPBMCs (Milecell Biotechnologies)
Experimental: (§1) After 24 hours of compounds treatment, cells were harvested and lysed in RIPA protein lysate containing protease inhibitors on ice for 30 min, followed by centrifugation. The supernatant was aspirated as the extracted total cell protein. The protein concentration of the supernatant was determined using the conventional BCA (Bicinchoninic Acid) assay. • (2) To the collected supernatant, 5X SDS sample loading buffer was added, followed by denaturation at 95°C for 5 minutes. The denatured samples were then separated by SDS-PAGE electrophoresis on a polyacrylamide gel, transferred onto a nitrocellulose membrane (0.45 µm NC membrane), blocked with blocking buffer at room temperature for 1 hour, and subjected to antibody incubation and development procedures according to the antibody manufacturer's instructions (Cell Signaling Technology Company). […]
(§2) Target protein remaining (%) refers to the percentage of target protein remaining in cells after treatment with protein degrader compounds.
(§3) Calculation method for target protein remaining (%): Use ImageJ software to measure grayscale values of Western blot bands from drug (protein degrader)-treated samples. The grayscale value of drug-treated bands is divided by that of internal control protein bands, and the resulting quotient is normalized to obtain the relative percentage of remaining target protein after protein degrader treatment. Target protein degradation rate(%) = 1−target protein remaining(%). [formula]

[2] = target: T2, IKZF3 (Homo sapiens, UniProt Q96SW2+Q9UKT9); assay: Western-blot assay of substrate protein degradation in hPBMCs, IKZF3
T2 construct: endogenous in cells; host or cells: hPBMCs (Milecell Biotechnologies)
Experimental: as §1, §2, §3

[3] = target: T3, IKZF2 (Homo sapiens, UniProt Q96SW2+Q9UKS7); assay: Western-blot assay of substrate protein degradation in hPBMCs, IKZF2
T3 construct: endogenous in cells; host or cells: hPBMCs (Milecell Biotechnologies)
Experimental: as §1, §2, §3

[4] = target: T4, GSPT1 (Homo sapiens, UniProt P15170+Q96SW2); assay: Western-blot assay of substrate protein degradation in hPBMCs, GSPT1
T4 construct: endogenous in cells; host or cells: hPBMCs (Milecell Biotechnologies)
Experimental: as §1, §2, §3

[5] = target: T5, IKZF1 (Homo sapiens, UniProt Q13422+Q96SW2); assay: Western-blot assay of substrate protein degradation in hPBMCs, IKZF1
T5 construct: endogenous in cells; host or cells: hPBMCs (Milecell Biotechnologies)
Experimental: as §1, §2, §3

[6] = target: T6, CK1α (Homo sapiens, UniProt P48729+Q96SW2); assay: Western-blot assay of substrate protein degradation in hPBMCs, CK1α
T6 construct: endogenous in cells; host or cells: hPBMCs (Milecell Biotechnologies)
Experimental: as §1, §2, §3

[7] = compounds tested at 50 nM and 500 nM (concentration of the table not stated)
[8] = 50 nM and 500 nM tested (concentration behind the class not stated)

T1 sequence (P30291 whole entry): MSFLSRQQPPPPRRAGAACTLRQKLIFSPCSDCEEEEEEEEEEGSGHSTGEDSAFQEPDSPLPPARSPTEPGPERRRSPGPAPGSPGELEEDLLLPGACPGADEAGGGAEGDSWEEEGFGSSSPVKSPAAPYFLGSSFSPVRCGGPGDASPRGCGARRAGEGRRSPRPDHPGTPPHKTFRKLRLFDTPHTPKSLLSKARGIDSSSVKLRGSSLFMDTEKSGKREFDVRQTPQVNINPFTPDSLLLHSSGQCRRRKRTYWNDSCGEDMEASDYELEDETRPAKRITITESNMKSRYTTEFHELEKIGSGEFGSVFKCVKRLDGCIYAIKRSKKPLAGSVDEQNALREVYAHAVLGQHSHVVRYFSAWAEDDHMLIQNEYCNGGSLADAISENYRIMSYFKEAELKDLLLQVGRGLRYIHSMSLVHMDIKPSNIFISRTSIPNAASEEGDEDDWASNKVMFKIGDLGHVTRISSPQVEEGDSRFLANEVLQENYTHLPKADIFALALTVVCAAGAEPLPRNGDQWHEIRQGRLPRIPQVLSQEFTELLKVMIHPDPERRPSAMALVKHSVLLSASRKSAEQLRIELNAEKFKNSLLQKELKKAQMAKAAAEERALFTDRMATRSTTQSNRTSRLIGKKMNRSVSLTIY
T1 sequence (Q96SW2 whole entry): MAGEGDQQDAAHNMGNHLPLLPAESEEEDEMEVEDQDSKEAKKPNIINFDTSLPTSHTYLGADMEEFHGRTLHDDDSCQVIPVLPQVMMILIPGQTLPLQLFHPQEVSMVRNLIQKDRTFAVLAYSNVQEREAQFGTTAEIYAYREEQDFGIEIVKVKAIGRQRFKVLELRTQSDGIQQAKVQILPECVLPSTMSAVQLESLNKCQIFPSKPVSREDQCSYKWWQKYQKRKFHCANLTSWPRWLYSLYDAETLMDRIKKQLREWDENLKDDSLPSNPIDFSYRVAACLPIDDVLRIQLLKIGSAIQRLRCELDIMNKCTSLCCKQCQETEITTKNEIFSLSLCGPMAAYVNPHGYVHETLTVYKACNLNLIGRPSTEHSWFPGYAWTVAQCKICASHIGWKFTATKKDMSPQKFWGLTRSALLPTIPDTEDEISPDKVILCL
T1 sequence (Q16531 whole entry partner): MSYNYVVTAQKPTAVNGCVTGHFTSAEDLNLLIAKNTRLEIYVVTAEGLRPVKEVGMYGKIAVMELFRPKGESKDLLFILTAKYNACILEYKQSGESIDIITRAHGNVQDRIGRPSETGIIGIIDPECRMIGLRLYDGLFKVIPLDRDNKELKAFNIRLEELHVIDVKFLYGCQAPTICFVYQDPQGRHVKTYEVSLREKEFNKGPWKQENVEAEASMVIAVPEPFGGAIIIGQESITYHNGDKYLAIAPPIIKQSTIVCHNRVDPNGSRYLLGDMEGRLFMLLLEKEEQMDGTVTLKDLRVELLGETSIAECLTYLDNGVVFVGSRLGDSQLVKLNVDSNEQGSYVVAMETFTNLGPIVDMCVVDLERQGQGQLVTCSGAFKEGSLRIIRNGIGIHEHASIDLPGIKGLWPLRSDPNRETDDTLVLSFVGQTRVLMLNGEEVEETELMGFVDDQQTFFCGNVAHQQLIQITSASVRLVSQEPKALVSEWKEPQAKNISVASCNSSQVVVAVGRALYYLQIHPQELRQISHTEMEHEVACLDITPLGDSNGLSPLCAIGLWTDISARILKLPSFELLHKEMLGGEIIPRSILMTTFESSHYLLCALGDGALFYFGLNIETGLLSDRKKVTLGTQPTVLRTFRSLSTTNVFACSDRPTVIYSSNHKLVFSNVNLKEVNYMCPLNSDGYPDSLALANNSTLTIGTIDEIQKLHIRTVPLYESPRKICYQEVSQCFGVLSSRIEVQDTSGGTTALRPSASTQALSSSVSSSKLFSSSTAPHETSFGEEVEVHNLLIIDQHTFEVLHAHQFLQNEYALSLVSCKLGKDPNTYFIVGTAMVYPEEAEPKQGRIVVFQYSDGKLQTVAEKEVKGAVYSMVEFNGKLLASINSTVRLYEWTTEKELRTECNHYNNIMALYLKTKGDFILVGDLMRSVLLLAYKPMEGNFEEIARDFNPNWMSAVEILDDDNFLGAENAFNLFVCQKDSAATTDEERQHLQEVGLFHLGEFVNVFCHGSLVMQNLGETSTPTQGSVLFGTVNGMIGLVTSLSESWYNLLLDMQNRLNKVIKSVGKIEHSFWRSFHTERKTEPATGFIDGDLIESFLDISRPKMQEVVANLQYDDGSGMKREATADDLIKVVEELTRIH
T2 sequence (Q9UKT9 whole entry): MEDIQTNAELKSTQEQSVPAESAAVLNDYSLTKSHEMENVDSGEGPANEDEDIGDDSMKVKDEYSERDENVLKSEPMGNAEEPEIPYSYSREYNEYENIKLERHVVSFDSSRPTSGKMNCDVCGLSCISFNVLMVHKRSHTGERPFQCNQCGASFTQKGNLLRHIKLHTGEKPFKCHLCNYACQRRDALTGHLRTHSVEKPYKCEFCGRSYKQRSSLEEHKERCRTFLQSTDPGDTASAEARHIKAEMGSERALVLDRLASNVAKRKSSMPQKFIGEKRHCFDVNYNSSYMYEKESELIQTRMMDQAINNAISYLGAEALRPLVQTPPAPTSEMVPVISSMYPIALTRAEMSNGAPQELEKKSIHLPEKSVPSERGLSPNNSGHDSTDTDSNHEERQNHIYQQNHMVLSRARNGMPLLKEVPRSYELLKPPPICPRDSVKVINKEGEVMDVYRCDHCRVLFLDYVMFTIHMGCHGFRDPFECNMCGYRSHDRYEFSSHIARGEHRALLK
T2 sequence (Q96SW2 whole entry): as the sequence (Q96SW2 whole entry) above
T2 sequence (Q16531 whole entry partner): as the sequence (Q16531 whole entry partner) above
T6 sequence (P48729 whole entry): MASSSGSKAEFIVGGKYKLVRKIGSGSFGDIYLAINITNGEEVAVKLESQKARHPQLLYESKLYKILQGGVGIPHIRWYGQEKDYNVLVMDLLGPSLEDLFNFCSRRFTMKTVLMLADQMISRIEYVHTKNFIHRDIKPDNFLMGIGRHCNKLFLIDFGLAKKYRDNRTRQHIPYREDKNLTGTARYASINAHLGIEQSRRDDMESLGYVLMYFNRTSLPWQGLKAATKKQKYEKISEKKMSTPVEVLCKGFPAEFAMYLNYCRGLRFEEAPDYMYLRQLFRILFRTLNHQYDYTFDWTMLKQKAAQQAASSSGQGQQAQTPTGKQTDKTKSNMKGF
T6 sequence (Q96SW2 whole entry): as the sequence (Q96SW2 whole entry) above
T6 sequence (Q16531 whole entry partner): as the sequence (Q16531 whole entry partner) above
T4 sequence (P15170 whole entry): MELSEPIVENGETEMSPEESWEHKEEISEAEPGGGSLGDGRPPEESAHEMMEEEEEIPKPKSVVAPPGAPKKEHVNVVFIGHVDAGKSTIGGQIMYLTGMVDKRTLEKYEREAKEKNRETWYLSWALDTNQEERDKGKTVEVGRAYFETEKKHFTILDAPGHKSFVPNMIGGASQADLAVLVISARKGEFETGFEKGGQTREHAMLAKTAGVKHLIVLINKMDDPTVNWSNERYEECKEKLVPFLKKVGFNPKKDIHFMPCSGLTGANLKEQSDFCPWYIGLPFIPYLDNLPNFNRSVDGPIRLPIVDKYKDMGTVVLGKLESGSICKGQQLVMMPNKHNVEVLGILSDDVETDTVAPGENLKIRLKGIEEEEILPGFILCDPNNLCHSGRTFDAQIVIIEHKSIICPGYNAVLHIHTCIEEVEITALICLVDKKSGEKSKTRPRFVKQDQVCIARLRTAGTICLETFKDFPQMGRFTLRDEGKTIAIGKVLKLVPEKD
T4 sequence (Q96SW2 whole entry): as the sequence (Q96SW2 whole entry) above
T4 sequence (Q16531 whole entry partner): as the sequence (Q16531 whole entry partner) above
T5 sequence (Q13422 whole entry): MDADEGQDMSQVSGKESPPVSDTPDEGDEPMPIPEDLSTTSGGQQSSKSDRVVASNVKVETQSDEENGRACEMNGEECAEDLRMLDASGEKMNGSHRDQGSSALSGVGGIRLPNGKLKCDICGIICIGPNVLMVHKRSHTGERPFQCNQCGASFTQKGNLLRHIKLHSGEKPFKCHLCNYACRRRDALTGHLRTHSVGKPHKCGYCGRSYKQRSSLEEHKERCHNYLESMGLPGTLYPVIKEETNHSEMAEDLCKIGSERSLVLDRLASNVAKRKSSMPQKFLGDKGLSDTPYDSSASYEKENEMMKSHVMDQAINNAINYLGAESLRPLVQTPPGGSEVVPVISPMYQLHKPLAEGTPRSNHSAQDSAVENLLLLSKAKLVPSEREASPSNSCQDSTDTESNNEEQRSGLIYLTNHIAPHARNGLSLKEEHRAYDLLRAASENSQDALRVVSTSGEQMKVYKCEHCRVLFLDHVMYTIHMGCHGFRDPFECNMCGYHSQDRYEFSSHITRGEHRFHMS
T5 sequence (Q96SW2 whole entry): as the sequence (Q96SW2 whole entry) above
T5 sequence (Q16531 whole entry partner): as the sequence (Q16531 whole entry partner) above

SMILES	Weel substrate protein remaining % [1, 7]	IKZF3 substrate protein remaining % [2, 7]	IKZF2 substrate protein remaining % [3, 7]	GSPT1 substrate protein remaining % [4, 7]	IKZF 1 substrate protein remaining % [5, 7]	CK1a substrate protein remaining % [6, 7]	Weel substrate protein remaining % [1, 8]	IKZF3 substrate protein remaining % [2, 8]	IKZF2 substrate protein remaining % [3, 8]	GSPT1 substrate protein remaining % [4, 8]	IKZF 1 substrate protein remaining % [5, 8]	CK1a substrate protein remaining % [6, 8]
O=C1CCC(N2C(=O)c3ccc(CN4CC=C(c5ccnc6cc(F)ccc56)CC4)cc3C2=O)C(=O)N1 (stereo not drawn) [GT-06267, 2-(2,6-dioxopiperidin-3-yl)-5-((4-(7-fluoroquinolin-4-yl)-3,6-dihydropyridin-1(2H)-yl)methyl)isoindoline-1,3-dione]	A (0% ≤ substrate protein remaining % ≤ 80%)	A (0% ≤ substrate protein remaining % ≤ 80%)	A (0% ≤ substrate protein remaining % ≤ 80%)	A (0% ≤ substrate protein remaining % ≤ 80%)	B (80%< substrate protein remaining %≤ 100%)	A (0% ≤ substrate protein remaining % ≤ 80%)						
O=C1CCC(N2C(=O)c3ccc(CN4CC=C(c5cccc6cnccc56)CC4)cc3C2=O)C(=O)N1 (stereo not drawn) [GT-06268, 2-(2,6-dioxopiperidin-3-yl)-5-((4-(isoquinolin-5-yl)-3,6-dihydropyridin-1(2H)-yl)methyl)isoindoline-1,3-dione]	A (0% ≤ substrate protein remaining % ≤ 80%)	A (0% ≤ substrate protein remaining % ≤ 80%)	A (0% ≤ substrate protein remaining % ≤ 80%)	A (0% ≤ substrate protein remaining % ≤ 80%)	B (80%< substrate protein remaining %≤ 100%)	A (0% ≤ substrate protein remaining % ≤ 80%)						
O=C1CCC(N2C(=O)c3ccc(CN4CC(C5CCOc6cc(F)ccc65)C4)cc3C2=O)C(=O)N1 (stereo not drawn) [GT-06269, 2-(2,6-dioxopiperidin-3-yl)-5-((3-(7-fluorochroman-4-yl)azetidin-1-yl)methyl)isoindoline-1,3-dione]	B (80%< substrate protein remaining %≤ 100%)	A (0% ≤ substrate protein remaining % ≤ 80%)	A (0% ≤ substrate protein remaining % ≤ 80%)	A (0% ≤ substrate protein remaining % ≤ 80%)	B (80%< substrate protein remaining %≤ 100%)	B (80%< substrate protein remaining %≤ 100%)						
O=C1CCC(N2C(=O)c3ccc(CN4CC(c5ccnc6cc(F)ccc56)C4)cc3C2=O)C(=O)N1 (stereo not drawn) [GT-06270, 2-(2,6-dioxopiperidin-3-yl)-5-((3-(7-fluoroquinolin-4-yl)azetidin-1-yl)methyl)isoindoline-1,3-dione]							B (80%< substrate protein remaining %≤ 100%)	B (80%< substrate protein remaining %≤ 100%)	B (80%< substrate protein remaining %≤ 100%)	A (0% ≤ substrate protein remaining % ≤ 80%)	B (80%< substrate protein remaining %≤ 100%)	B (80%< substrate protein remaining %≤ 100%)
O=C1CCC(N2C(=O)c3ccc(CN4CC(N5CCc6cc(F)ccc65)C4)cc3C2=O)C(=O)N1 (stereo not drawn) [GT-06271, 2-(2,6-dioxopiperidin-3-yl)-5-((3-(5-fluoroindolin-1-yl)azetidin-1-yl)methyl)isoindoline-1,3-dione]							A (0% ≤ substrate protein remaining % ≤ 80%)	B (80%< substrate protein remaining %≤ 100%)	A (0% ≤ substrate protein remaining % ≤ 80%)	A (0% ≤ substrate protein remaining % ≤ 80%)	A (0% ≤ substrate protein remaining % ≤ 80%)	B (80%< substrate protein remaining %≤ 100%)
O=C1CCC(N2C(=O)c3ccc(CN4CCN(c5cccc(Cl)c5Cl)CC4)cc3C2=O)C(=O)N1 (stereo not drawn) [GT-06273, 5-((4-(2,3-dichlorophenyl)piperazin-1-yl)methyl)-2-(2,6-dioxopiperidin-3-yl)isoindoline-1,3-dione]							A (0% ≤ substrate protein remaining % ≤ 80%)	A (0% ≤ substrate protein remaining % ≤ 80%)	A (0% ≤ substrate protein remaining % ≤ 80%)	A (0% ≤ substrate protein remaining % ≤ 80%)	A (0% ≤ substrate protein remaining % ≤ 80%)	A (0% ≤ substrate protein remaining % ≤ 80%)
O=C1CCC(N2C(=O)c3ccc(CN4CCN(c5ccccc5Cl)CC4)cc3C2=O)C(=O)N1 (stereo not drawn) [GT-06274, 5-((4-(2-chlorophenyl)piperazin-1-yl)methyl)-2-(2,6-dioxopiperidin-3-yl)isoindoline-1,3-dione]							B (80%< substrate protein remaining %≤ 100%)	B (80%< substrate protein remaining %≤ 100%)	B (80%< substrate protein remaining %≤ 100%)	A (0% ≤ substrate protein remaining % ≤ 80%)	B (80%< substrate protein remaining %≤ 100%)	B (80%< substrate protein remaining %≤ 100%)
O=C1CCC(N2C(=O)c3ccc(CN4CCN(c5ccc(Cl)cc5)CC4)cc3C2=O)C(=O)N1 (stereo not drawn) [GT-06275, 5-((4-(4-chlorophenyl)piperazin-1-yl)methyl)-2-(2,6-dioxopiperidin-3-yl)isoindoline-1,3-dione]							B (80%< substrate protein remaining %≤ 100%)	B (80%< substrate protein remaining %≤ 100%)	B (80%< substrate protein remaining %≤ 100%)	A (0% ≤ substrate protein remaining % ≤ 80%)	B (80%< substrate protein remaining %≤ 100%)	B (80%< substrate protein remaining %≤ 100%)
Cc1cccc(N2CCN(Cc3ccc4c(c3)C(=O)N(C3CCC(=O)NC3=O)C4=O)CC2)c1 (stereo not drawn) [GT-06276, 2-(2,6-dioxopiperidin-3-yl)-5-((4-(m-tolyl)piperazin-1-yl)methyl)isoindoline-1,3-dione]							B (80%< substrate protein remaining %≤ 100%)	B (80%< substrate protein remaining %≤ 100%)	A (0% ≤ substrate protein remaining % ≤ 80%)	A (0% ≤ substrate protein remaining % ≤ 80%)	A (0% ≤ substrate protein remaining % ≤ 80%)	B (80%< substrate protein remaining %≤ 100%)
Cc1ccc(N2CCN(Cc3ccc4c(c3)C(=O)N(C3CCC(=O)NC3=O)C4=O)CC2)cc1 (stereo not drawn) [GT-06277, 2-(2,6-dioxopiperidin-3-yl)-5-((4-(p-tolyl)piperazin-1-yl)methyl)isoindoline-1,3-dione]							B (80%< substrate protein remaining %≤ 100%)	B (80%< substrate protein remaining %≤ 100%)	B (80%< substrate protein remaining %≤ 100%)	A (0% ≤ substrate protein remaining % ≤ 80%)	B (80%< substrate protein remaining %≤ 100%)	B (80%< substrate protein remaining %≤ 100%)
Cc1cc(C2=CCN(Cc3ccc4c(c3)C(=O)N(C3CCC(=O)NC3=O)C4=O)CC2)cs1 (stereo not drawn) [GT-06279, 2-(2,6-dioxopiperidin-3-yl)-5-((4-(5-methylthiophen-3-yl)-3,6-dihydropyridin-1(2H)-yl)methyl)isoindoline-1,3-dione]							A (0% ≤ substrate protein remaining % ≤ 80%)	A (0% ≤ substrate protein remaining % ≤ 80%)	A (0% ≤ substrate protein remaining % ≤ 80%)	A (0% ≤ substrate protein remaining % ≤ 80%)	A (0% ≤ substrate protein remaining % ≤ 80%)	A (0% ≤ substrate protein remaining % ≤ 80%)
Cc1ccsc1C1CCN(Cc2ccc3c(c2)C(=O)N(C2CCC(=O)NC2=O)C3=O)CC1 (stereo not drawn) [GT-06280, 2-(2,6-dioxopiperidin-3-yl)-5-((4-(3-methylthiophen-2-yl)piperidin-1-yl)methyl)isoindoline-1,3-dione]							B (80%< substrate protein remaining %≤ 100%)	B (80%< substrate protein remaining %≤ 100%)	B (80%< substrate protein remaining %≤ 100%)	A (0% ≤ substrate protein remaining % ≤ 80%)	B (80%< substrate protein remaining %≤ 100%)	B (80%< substrate protein remaining %≤ 100%)

Source: patent EP4745137A1 (Gluetacs Therapeutics (Shanghai) Co., Ltd., priority 2023, dated 2025)
